According to US20250145606A1 (Arcus Biosciences, Inc., priority 2023, published 2025):

Key:
Conditions in all cases: biochemical, HTRF KinEASE-TK
PDGFRβ = PDGFRβ (Homo sapiens (Human), UniProt P09619); test: Inhibition of PDGFRβ kinase activity (HTRF KinEASE-TK)
Procedure: (§1) Inhibition of c-Kit, PDGFRα, PDGFRβ, CSFIR and FLT3 Kinase Activity
(§2) Compounds were evaluated to determine the potency with which they inhibit the kinase activity of the following panel of tyrosine kinases: c-Kit (SignalChem, Product #: K06-11BG), PDGFRα (SignalChem, Product #: P12-18G), PDGFRβ (SignalChem, Product #: P13-11G), CSFIR (SignalChem, Product #: C74-11G) and FLT3 (Invitrogen, Product #: PR4666C). Activity was determined as a function of phosphorylated biotinylated TK peptide generated by the transfer of phosphate from ATP as measured by the use of the HTRF KinEASE-TK assay kit (Cisbio, Product #: 62TKOPEJ). Levels of phosphorylated biotinylated TK peptide (Part 61TKOBLC of KinEASE assay kit) are quantified by its capture by phosphor-TK-Antibody-Cryptate (Part of KinEASE assay kit) and XL665-labeled Streptavidin (Part 610SAXLG of KinEASE assay kit) followed by measurement of Time-Resolved Fluorescence Resonance Energy Transfer (TR-FRET) signal. On the day of the assay, compounds were solubilized in DMSO and dispensed into a 384-well white Opti-plate (PerkinElmer, catalog #6007290) to generate a 22 point 1:2 titration. Enzyme solution was prepared for each of the tyrosine kinases in 50 mM HEPES, pH 7.4, 5 mM MgCl2 for c-Kit or 10 mM MgCl2 for FLT3, CSFIR, PDGFRa and PDGFRβ, 2 mM MnCl2, 0.01% Brij-35 and 0.01% BSA. Working enzyme concentrations were prepared for c-Kit at 2 nM (2×), PDGFRa and PDGFRß at 10 nM (2×), CSFIR at 2 nM (2×) and FLT3 at 0.4 nM (2×). Five microliters of enzyme dilution of each tyrosine kinase were added to their respective 384-well white Opti-plate pre-dispensed with compound and allowed to incubate for 1 h at rt. Utilizing the same enzyme buffer recipe, 2x substrate mixes were prepared for each enzyme as follows: For c-Kit, 1.6 μM (2×) TK substrate and 16 μM (2×) ATP (Promega, catalog #V915). For PDGFRα, 3.2 μM TK substrate and 1 μM ATP. For PDGFRβ, 3.2 μM TK substrate and 40 μM ATP. For CSFIR, […] TK substrate and 20 μM ATP. For FLT3, 3.2 μM TK substrate and 100 μM ATP. Reactions were initiated by addition of 5 μL of the respective 2x substrate mix to each well of the plates containing the respective tyrosine kinase enzymes and were allowed to proceed for 120 minutes at rt, except for FLT3, the reaction time is 45 min. Following the reaction, 10 μL of detection mix consisting of 0.2 μM (2×) of Streptavidin-XL665 and 2 μM (2×) of TK-Antibody-Cryptate prepared in detection buffer (Part 62SDBRDF of KinEASE assay kit) was added and then allowed to incubate for 60 min. The TR-FRET signal was quantified by measuring the ratio of emission at 665 nm to 620 nm after excitation at 320 nm by reading on a PerkinElmer Envision multimode reader. Compound potencies (IC50 values) were determined using a standard 4-parameter non-linear regression fit.

c-Kit = c-Kit (Homo sapiens (Human), UniProt P10721); test: Inhibition of c-Kit kinase activity (HTRF KinEASE-TK); assay type: biochemical
Procedure: as §1, §2

CSF1R = CSF1R (Homo sapiens (Human), UniProt P07333); test: Inhibition of CSF1R kinase activity (HTRF KinEASE-TK)
Procedure: as §1, §2

PDGFRα = PDGFRα (Homo sapiens (Human), UniProt P16234); test: Inhibition of PDGFRα kinase activity (HTRF KinEASE-TK)
Procedure: as §1, §2

Sequence of c-Kit (P10721 26-976): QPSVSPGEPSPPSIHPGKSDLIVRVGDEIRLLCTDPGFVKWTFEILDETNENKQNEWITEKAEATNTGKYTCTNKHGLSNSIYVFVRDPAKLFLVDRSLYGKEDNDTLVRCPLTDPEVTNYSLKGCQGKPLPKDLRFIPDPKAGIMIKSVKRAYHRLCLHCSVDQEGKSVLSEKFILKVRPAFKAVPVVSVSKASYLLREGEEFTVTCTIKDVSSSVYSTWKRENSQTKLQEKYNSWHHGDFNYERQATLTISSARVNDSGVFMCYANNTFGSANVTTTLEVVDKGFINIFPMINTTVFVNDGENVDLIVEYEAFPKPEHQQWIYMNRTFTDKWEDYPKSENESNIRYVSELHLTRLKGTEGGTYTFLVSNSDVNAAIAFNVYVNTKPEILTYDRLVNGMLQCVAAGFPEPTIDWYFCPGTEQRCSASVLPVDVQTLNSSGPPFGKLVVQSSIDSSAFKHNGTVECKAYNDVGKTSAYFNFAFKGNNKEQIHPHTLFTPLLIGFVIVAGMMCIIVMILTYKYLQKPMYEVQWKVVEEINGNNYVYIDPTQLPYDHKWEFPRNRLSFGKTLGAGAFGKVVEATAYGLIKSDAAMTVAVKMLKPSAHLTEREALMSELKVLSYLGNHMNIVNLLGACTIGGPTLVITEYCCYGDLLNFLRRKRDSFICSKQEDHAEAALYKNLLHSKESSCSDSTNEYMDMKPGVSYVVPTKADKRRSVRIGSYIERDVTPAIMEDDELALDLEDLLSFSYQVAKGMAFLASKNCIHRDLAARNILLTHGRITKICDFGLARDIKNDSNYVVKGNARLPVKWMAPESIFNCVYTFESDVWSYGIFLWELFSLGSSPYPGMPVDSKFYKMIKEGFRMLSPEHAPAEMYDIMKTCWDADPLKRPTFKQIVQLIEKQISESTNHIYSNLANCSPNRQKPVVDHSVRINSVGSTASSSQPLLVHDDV
Sequence of PDGFRα (P16234 24-1089): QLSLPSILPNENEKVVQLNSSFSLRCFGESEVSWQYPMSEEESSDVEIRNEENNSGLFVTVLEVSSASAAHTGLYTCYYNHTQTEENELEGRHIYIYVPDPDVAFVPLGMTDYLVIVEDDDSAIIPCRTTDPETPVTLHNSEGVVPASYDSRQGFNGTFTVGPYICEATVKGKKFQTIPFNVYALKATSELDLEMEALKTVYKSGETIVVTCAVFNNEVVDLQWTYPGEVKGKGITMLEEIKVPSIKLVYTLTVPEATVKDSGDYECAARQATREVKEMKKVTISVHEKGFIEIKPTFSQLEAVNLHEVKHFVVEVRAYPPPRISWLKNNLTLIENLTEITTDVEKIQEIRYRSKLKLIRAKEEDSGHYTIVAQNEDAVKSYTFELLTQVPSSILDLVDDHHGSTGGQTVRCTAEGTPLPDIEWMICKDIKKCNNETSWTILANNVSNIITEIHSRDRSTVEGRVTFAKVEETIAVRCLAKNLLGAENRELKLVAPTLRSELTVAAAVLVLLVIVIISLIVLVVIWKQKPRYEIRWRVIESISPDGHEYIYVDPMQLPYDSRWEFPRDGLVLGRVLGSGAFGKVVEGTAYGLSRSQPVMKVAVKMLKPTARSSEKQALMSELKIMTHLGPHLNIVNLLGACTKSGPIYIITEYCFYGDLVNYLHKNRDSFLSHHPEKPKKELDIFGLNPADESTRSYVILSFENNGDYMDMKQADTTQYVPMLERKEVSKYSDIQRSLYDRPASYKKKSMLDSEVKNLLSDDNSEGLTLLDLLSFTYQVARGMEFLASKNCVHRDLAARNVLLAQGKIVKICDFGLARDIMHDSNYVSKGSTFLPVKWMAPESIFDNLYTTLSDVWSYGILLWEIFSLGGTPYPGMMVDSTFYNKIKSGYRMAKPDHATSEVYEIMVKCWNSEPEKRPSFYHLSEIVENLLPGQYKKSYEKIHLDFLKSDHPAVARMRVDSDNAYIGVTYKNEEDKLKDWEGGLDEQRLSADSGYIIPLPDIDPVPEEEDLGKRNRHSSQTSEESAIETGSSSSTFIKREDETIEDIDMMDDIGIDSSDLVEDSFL
Sequence of PDGFRβ (P09619 33-1106): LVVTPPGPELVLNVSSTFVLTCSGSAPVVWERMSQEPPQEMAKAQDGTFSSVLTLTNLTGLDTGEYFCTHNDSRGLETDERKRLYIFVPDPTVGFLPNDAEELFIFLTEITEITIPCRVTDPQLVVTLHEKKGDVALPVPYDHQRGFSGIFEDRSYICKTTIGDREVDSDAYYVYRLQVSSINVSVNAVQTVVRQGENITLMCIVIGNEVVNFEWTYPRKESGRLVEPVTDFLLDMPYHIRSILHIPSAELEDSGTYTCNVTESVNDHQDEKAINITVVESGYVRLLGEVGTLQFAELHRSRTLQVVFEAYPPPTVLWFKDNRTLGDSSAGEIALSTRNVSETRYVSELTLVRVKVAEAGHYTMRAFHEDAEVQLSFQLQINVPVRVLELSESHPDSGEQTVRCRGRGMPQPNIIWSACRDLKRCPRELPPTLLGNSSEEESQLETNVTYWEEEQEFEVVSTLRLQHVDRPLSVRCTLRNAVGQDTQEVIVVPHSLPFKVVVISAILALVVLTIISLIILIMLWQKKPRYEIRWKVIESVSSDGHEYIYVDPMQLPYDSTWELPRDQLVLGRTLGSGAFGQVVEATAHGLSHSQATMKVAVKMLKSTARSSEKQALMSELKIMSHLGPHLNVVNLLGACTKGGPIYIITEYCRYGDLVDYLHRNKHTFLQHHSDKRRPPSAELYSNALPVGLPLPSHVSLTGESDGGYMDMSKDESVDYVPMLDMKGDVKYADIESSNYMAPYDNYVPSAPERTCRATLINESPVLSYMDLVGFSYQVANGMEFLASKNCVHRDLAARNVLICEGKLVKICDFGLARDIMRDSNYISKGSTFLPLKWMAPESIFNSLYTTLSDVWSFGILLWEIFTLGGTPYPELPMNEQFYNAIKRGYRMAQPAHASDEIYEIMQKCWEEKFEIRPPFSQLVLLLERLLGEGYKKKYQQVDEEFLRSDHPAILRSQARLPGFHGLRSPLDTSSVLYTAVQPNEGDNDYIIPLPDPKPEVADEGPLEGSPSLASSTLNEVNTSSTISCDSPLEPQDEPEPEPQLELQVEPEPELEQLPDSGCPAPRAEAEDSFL
Sequence of CSF1R (P07333 20-972): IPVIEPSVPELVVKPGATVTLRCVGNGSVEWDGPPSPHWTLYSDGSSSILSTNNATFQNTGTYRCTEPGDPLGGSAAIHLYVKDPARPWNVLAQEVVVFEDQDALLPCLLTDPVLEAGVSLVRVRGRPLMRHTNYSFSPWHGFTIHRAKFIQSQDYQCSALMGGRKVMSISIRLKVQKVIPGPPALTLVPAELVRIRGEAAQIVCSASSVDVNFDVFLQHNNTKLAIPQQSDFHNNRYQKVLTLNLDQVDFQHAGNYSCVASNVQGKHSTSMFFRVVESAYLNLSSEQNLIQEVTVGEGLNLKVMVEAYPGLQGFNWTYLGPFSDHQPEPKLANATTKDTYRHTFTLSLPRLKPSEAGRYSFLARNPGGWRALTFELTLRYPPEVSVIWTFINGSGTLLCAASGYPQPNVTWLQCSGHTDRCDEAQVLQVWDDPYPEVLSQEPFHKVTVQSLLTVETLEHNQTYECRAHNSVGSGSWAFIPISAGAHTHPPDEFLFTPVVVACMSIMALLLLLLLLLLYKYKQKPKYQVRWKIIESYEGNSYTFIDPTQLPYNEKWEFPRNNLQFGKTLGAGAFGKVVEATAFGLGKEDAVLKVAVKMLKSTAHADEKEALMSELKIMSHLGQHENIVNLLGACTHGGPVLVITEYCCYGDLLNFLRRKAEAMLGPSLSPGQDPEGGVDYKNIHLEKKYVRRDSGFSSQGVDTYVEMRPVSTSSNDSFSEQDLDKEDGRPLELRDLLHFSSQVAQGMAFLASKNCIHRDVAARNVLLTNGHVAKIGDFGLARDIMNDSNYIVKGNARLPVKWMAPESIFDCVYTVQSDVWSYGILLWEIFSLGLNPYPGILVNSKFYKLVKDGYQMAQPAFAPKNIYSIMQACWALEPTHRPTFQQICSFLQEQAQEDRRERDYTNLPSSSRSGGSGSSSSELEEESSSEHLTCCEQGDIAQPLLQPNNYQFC

## Cc1cc(F)c(C(=O)Nc2ccc(C(C)(C)O)cn2)cc1NC(=O)c1cnc(N)s1 [Example 113, 2-Amino-N-[4-fluoro-5-[[5-(2-hydroxypropan-2-yl)pyridin-2-yl]carbamoyl]-2-methylphenyl]-1,3-thiazole-5-carboxamide]
PDGFRβ
  IC50: < 100 nM
c-Kit
  IC50: < 100 nM
CSF1R
  IC50: 100 to 1000 nM
PDGFRα
  IC50: 100 to 1000 nM

## Cc1cc(F)c(C(=O)Nc2ccc(OC3CC3)cn2)cc1NC(=O)c1cnc(NC(=O)[C@H]2CCOC2)s1 [Example 108, N-[5-[(5-cyclopropyloxypyridin-2-yl)carbamoyl]-4-fluoro-2-methylphenyl]-2-[[(3S)-oxolane-3-carbonyl]amino]-1,3-thiazole-5-carboxamide]
PDGFRβ
  IC50: > 1000 nM
c-Kit
  IC50: < 100 nM
CSF1R
  IC50: > 1000 nM
PDGFRα
  IC50: > 1000 nM

## Cc1ncc(C(=O)Nc2cc(C(=O)Nc3ccc(OCC4CC4)cn3)c(F)cc2C)s1 [Example 65, N-[5-[[5-(cyclopropylmethoxy)pyridin-2-yl]carbamoyl]-4-fluoro-2-methylphenyl]-2-methyl-1,3-thiazole-5-carboxamide]
PDGFRβ
  IC50: > 1000 nM
c-Kit
  IC50: < 100 nM
CSF1R
  IC50: > 1000 nM
PDGFRα
  IC50: > 1000 nM

## Cc1ncc(C(=O)Nc2cc(C(=O)NCc3ccn(C(C)C)n3)c(F)cc2C)s1 [Example 79, N-[4-fluoro-2-methyl-5-[(1-propan-2-ylpyrazol-3-yl)methylcarbamoyl]phenyl]-2-methyl-1,3-thiazole-5-carboxamide]
PDGFRβ
  IC50: > 1000 nM
c-Kit
  IC50: < 100 nM
CSF1R
  IC50: > 1000 nM
PDGFRα
  IC50: > 1000 nM

## Cc1cc(F)c(C(=O)Nc2ccc(OC3CC3)cc2F)cc1NC(=O)c1cnc(N)s1 [Example 128]
PDGFRβ
  IC50: < 100 nM
c-Kit
  IC50: < 100 nM
CSF1R
  IC50: 100 to 1000 nM
PDGFRα
  IC50: 100 to 1000 nM

## Cc1cc(F)c(C(=O)Nc2ccn(CCO)n2)cc1NC(=O)c1cnc(N)s1 [Example 144, 2-Amino-N-[4-fluoro-5-[[1-(2-hydroxyethyl)pyrazol-3-yl]carbamoyl]-2-methylphenyl]-1,3-thiazole-5-carboxamide]
PDGFRβ
  IC50: > 1000 nM
c-Kit
  IC50: < 100 nM
CSF1R
  IC50: > 1000 nM
PDGFRα
  IC50: > 1000 nM

## Cc1cc(F)c(C(=O)Nc2ccc(OC3COC4(CC4)C3)cn2)cc1NC(=O)c1cnc(N)s1 (stereo not shown) [Example 199, 2-Amino-N-[4-fluoro-2-methyl-5-[[5-(4-oxaspiro[2.4]heptan-6-yloxy)pyridin-2-yl]carbamoyl]phenyl]-1,3-thiazole-5-carboxamide]
PDGFRβ
  IC50: > 1000 nM
c-Kit
  IC50: < 100 nM
CSF1R
  IC50: > 1000 nM
PDGFRα
  IC50: > 1000 nM

## Cc1ncc(C(=O)Nc2cc(C(=O)Nc3ccn(C(F)F)n3)c(F)cc2C)s1 [Example 69, N-[5-[[1-(difluoromethyl)pyrazol-3-yl]carbamoyl]-4-fluoro-2-methylphenyl]-2-methyl-1,3-thiazole-5-carboxamide]
PDGFRβ
  IC50: > 1000 nM
c-Kit
  IC50: 100 to 1000 nM
CSF1R
  IC50: > 1000 nM
PDGFRα
  IC50: > 1000 nM

## Cc1ncc(C(=O)Nc2cc(C(=O)Nc3ccc(C(F)F)cn3)c(F)cc2C)s1 [Example 16, N-[5-[[5-(Difluoromethyl)pyridin-2-yl]carbamoyl]-4-fluoro-2-methylphenyl]-2-methyl-1,3-thiazole-5-carboxamide]
PDGFRβ
  IC50: > 1000 nM
c-Kit
  IC50: < 100 nM
CSF1R
  IC50: > 1000 nM
PDGFRα
  IC50: > 1000 nM

## Cc1cc(F)c(C(=O)Nc2cc3n(n2)CCN(C)C3)cc1NC(=O)c1cnc(N)s1 [Example 180, 2-Amino-N-[4-fluoro-2-methyl-5-[(5-methyl-6,7-dihydro-4H-pyrazolo[1,5-a]pyrazin-2-yl)carbamoyl]phenyl]-1,3-thiazole-5-carboxamide]
PDGFRβ
  IC50: > 1000 nM
c-Kit
  IC50: < 100 nM
CSF1R
  IC50: > 1000 nM
PDGFRα
  IC50: > 1000 nM

## Cc1cc(F)c(C(=O)Nc2ccc(OC3CC3)cn2)cc1NC(=O)c1cnc(C(F)F)s1 [Example 59, N-[5-[(5-Cyclopropyloxypyridin-2-yl)carbamoyl]-4-fluoro-2-methylphenyl]-2-(difluoromethyl)-1,3-thiazole-5-carboxamide]
PDGFRβ
  IC50: > 1000 nM
c-Kit
  IC50: < 100 nM
CSF1R
  IC50: > 1000 nM
PDGFRα
  IC50: > 1000 nM

## Cc1cc(F)c(C(=O)Nc2cc(C3CC3)ccn2)cc1NC(=O)c1cnc(N)s1 [Example 190, 2-Amino-N-[5-[(4-cyclopropylpyridin-2-yl)carbamoyl]-4-fluoro-2-methylphenyl]-1,3-thiazole-5-carboxamide]
PDGFRβ
  IC50: < 100 nM
c-Kit
  IC50: < 100 nM
CSF1R
  IC50: < 100 nM
PDGFRα
  IC50: < 100 nM

## Cc1cc(F)c(C(=O)NCCc2ccc(F)cc2)cc1NC(=O)c1cnc(N)s1 [Example 165]
PDGFRβ
  IC50: < 100 nM
c-Kit
  IC50: < 100 nM
CSF1R
  IC50: 100 to 1000 nM
PDGFRα
  IC50: 100 to 1000 nM

## Cc1ncc(C(=O)Nc2cc(C(=O)Nc3ccc(OCC(F)(F)F)cn3)c(F)cc2C)s1 [Example 41, N-[4-fluoro-2-methyl-5-[[5-(2,2,2-trifluoroethoxy)pyridin-2-yl]carbamoyl]phenyl]-2-methyl-1,3-thiazole-5-carboxamide]
PDGFRβ
  IC50: > 1000 nM
c-Kit
  IC50: < 100 nM
CSF1R
  IC50: > 1000 nM
PDGFRα
  IC50: > 1000 nM

## COCCOc1ccc(NC(=O)c2cc(NC(=O)c3cnc(N)s3)c(C)cc2F)nc1 [Example 252, 2-Amino-N-[4-fluoro-5-[[5-(2-methoxyethoxy)pyridin-2-yl]carbamoyl]-2-methylphenyl]-1,3-thiazole-5-carboxamide]
PDGFRβ
  IC50: > 1000 nM
c-Kit
  IC50: < 100 nM
CSF1R
  IC50: > 1000 nM
PDGFRα
  IC50: > 1000 nM

## COc1ccc(NC(=O)c2cc(NC(=O)c3cnc(N)s3)c(F)cc2F)nc1 [Example 211, 2-Amino-N-[2,4-difluoro-5-[(5-methoxypyridin-2-yl)carbamoyl]phenyl]-1,3-thiazole-5-carboxamide]
PDGFRβ
  IC50: > 1000 nM
c-Kit
  IC50: < 100 nM
CSF1R
  IC50: > 1000 nM
PDGFRα
  IC50: > 1000 nM

## Cc1cc(F)c(C(=O)Nc2ccc(C(F)C(F)(F)F)cn2)cc1NC(=O)c1cnc(N)s1 (stereo not shown) [Example 225, 2-Amino-N-[4-fluoro-2-methyl-5-[[5-(1,2,2,2-tetrafluoroethyl)pyridin-2-yl]carbamoyl]phenyl]-1,3-thiazole-5-carboxamide]
PDGFRβ
  IC50: < 100 nM
c-Kit
  IC50: < 100 nM
CSF1R
  IC50: 100 to 1000 nM
PDGFRα
  IC50: 100 to 1000 nM

## Cc1cc(F)c(C(=O)Nc2cccc(F)c2)cc1NC(=O)c1cnc(N)s1 [Example 232, 2-Amino-N-[4-fluoro-5-[(3-fluorophenyl)carbamoyl]-2-methylphenyl]-1,3-thiazole-5-carboxamide]
PDGFRβ
  IC50: > 1000 nM
c-Kit
  IC50: < 100 nM
CSF1R
  IC50: 100 to 1000 nM
PDGFRα
  IC50: > 1000 nM

## Cc1cc(F)c(C(=O)Nc2ccc(OC3CC3)cn2)cc1NC(=O)c1cnc(NC(=O)OC2CCC2)s1 [Example 106]
PDGFRβ
  IC50: 100 to 1000 nM
c-Kit
  IC50: < 100 nM
CSF1R
  IC50: > 1000 nM
PDGFRα
  IC50: > 1000 nM

## Cc1cc(F)c(C(=O)Nc2ccc(OC3CC3)cn2)cc1NC(=O)c1cnc(NC(=O)C(C)(C)O)s1 [Example 109, N-[5-[(5-cyclopropyloxypyridin-2-yl)carbamoyl]-4-fluoro-2-methylphenyl]-2-[(2-hydroxy-2-methylpropanoyl)amino]-1,3-thiazole-5-carboxamide]
PDGFRβ
  IC50: > 1000 nM
c-Kit
  IC50: 100 to 1000 nM
CSF1R
  IC50: > 1000 nM
PDGFRα
  IC50: > 1000 nM

## Cc1cc(F)c(C(=O)Nc2ccccc2F)cc1NC(=O)c1cnc(N)s1 [Example 234, 2-Amino-N-[4-fluoro-5-[(2-fluorophenyl)carbamoyl]-2-methylphenyl]-1,3-thiazole-5-carboxamide]
PDGFRβ
  IC50: > 1000 nM
c-Kit
  IC50: < 100 nM
CSF1R
  IC50: > 1000 nM
PDGFRα
  IC50: > 1000 nM

## Cc1cc(F)c(C(=O)Nc2ccn(CC(C)(C)O)n2)cc1NC(=O)c1cnc(N)s1 [Example 153, 2-Amino-N-[4-fluoro-5-[[1-(2-hydroxy-2-methylpropyl)pyrazol-3-yl]carbamoyl]-2-methylphenyl]-1,3-thiazole-5-carboxamide]
PDGFRβ
  IC50: > 1000 nM
c-Kit
  IC50: < 100 nM
CSF1R
  IC50: > 1000 nM
PDGFRα
  IC50: > 1000 nM
